Results: patent US20240417410A1, “TRICYCLIC COMPOUNDS FOR THE TREATMENT OF CANCER” (Hoffmann-La Roche Inc., priority 2023, published 2024)

Experiments:
[1] = system: phosphorylation of ERK, KRAS G12C in NCI-H358 cells; experiment: pERK inhibition assay; format: cell-based; details: Homo sapiens, NCI-H358, 4 h
Summary of the method: (§1)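 NCI-H358 (KRAS G12C), AGS (G12D) and SW620 (G12V) cells plated overnight, then treated with compound for 4 h in 0.5% DMSO. After fixing and methanol permeabilisation, phospho-ERK was detected by in-cell ELISA (HRP/TMB, OD450). IC50 from a 4-parameter sigmoidal fit.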

[2] = system: phosphorylation of ERK, KRAS G12V in SW620; experiment: pERK inhibition assay; format: cell-based; details: Homo sapiens, SW-620, 4 h, SW620 cells
Summary of the method: as §1

[3] = system: phosphorylation of ERK, KRAS G12D in AGS cells; experiment: pERK inhibition assay; format: cell-based; details: Homo sapiens, AGS, 4 h
Summary of the method: as §1

KRAS G12C-BRAF complex = KRAS G12C-BRAF complex (Homo sapiens (Human), UniProt P01116+P62937, G12C); experiment: KRAS-BRAF with CYPA (500 nM) interaction assay (TR-FRET, Example 136); format: biochemical; details: KRAS G12C-BRAF disruption
AGS cells (KRAS G12D) = experiment: Cell viability assay (Cell Counting Kit-8, 3-day); format: cell-based, human; details: Homo sapiens, 72 h, 72 hrs incubation
Summary of the method: (§2)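 Seed NCI-H358 5,000/well, AGS and SW620 2,000/well; overnight. Compound, 0.5% DMSO final, 72 hrs. CCK-8 2 hrs, OD450–OD650. IC50: 4-parameter fit.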

SW620 cells (KRAS G12V) = experiment: Cell viability assay (Cell Counting Kit-8, 3-day); format: cell-based, human; details: Homo sapiens, SW-620; SW620, 72 hrs incubation
Summary of the method: as §2

[4] = system: NCI-H358 cells (KRAS G12C); experiment: Cell viability assay (Cell Counting Kit-8, 3-day); format: cell-based, human; details: Homo sapiens, NCI-H358, 72 h, NCI-H358, 72 hrs incubation
Summary of the method: as §2

Chain of KRAS G12C-BRAF complex (P01116-2 other isoform, or with tags, fused parts or gaps G12C): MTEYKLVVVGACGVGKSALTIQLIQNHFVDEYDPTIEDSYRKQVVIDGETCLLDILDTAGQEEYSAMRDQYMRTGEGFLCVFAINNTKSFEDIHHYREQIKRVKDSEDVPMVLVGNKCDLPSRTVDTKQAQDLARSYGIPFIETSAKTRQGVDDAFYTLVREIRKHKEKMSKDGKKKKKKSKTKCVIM
Chain of KRAS G12C-BRAF complex (P62937 whole entry): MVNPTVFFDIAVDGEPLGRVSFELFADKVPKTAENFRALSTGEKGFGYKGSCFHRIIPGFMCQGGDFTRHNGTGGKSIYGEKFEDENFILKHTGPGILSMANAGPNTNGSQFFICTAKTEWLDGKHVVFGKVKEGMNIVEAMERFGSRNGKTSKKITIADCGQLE

| SMILES | IC50 [1] [nM] | IC50 [2] [nM] | IC50 [3] [nM] | IC50 (KRAS G12C-BRAF complex) [nM] | IC50 (AGS cells (KRAS G12D)) [nM] | IC50 (SW620 cells (KRAS G12V)) [nM] | IC50 [4] [nM] |
| --- | --- | --- | --- | --- | --- | --- | --- |
| CO[C@@H](C)c1ncc(N2CCN(C)CC2)cc1-c1c2c3cc(c(F)c4c3n1CCC4)-c1csc(n1)C[C@H](NC(=O)[C@H]1[C@H](C)[C@@H]1C)C(=O)N1CCC[C@H](N1)C(=O)OCC(C)(C)C2 (atropisomer, axis not shown; (M)) [Example 124, (1r,2S,3R)-N-[(7S,13S)-29-fluoro-(20M)-20-[2-[(1S)-1-methoxyethyl]-5-(4-methylpiperazin-1-yl)-3-pyridyl]-17,17-dimethyl-8,14-dioxo-15-oxa-4-thia-9,21,30,31-tetrazahexacyclo[23.3.1.1^2,5.1^9,13.0^19,27.0^21,26]hentriaconta-1 (28),2,5 (31), 19,25 (29),26-hexaen-7-yl]-2,3-dimethyl-cyclopropanecarboxamide] | 1.4 | 0.7 | 15.7 | 16.2 | 13.8 | 1.6 | 8.9 |
| CO[C@@H](C)c1ncc(N2CCN(C)CC2)cc1-c1c2c3cc(cc4c3n1CCC4)-c1csc(n1)C[C@H](NC(=O)[C@@H]1C[C@H]1c1cccnc1C)C(=O)N1CCC[C@H](N1)C(=O)OCC(C)(C)C2 (atropisomer, axis not shown; (M)) [Example 116, (1R,2R)-N-[(7S,13S)-(20M)-20-[2-[(1S)-1-methoxyethyl]-5-(4-methylpiperazin-1-yl)-3-pyridyl]-17,17-dimethyl-8,14-dioxo-15-oxa-4-thia-9,21,30,31-tetrazahexacyclo[23.3.1.1^2,5.1^9,13.0^19,27.0^21,26]hentriaconta-1 (28),2,5 (31), 19,25 (29),26-hexaen-7-yl]-2-(2-methyl-3-pyridyl)cyclopropanecarboxamide] | 0.8 | 0.7 | 4.6 | 20.6 | 3.5 | 0.5 | 1.4 |
| CO[C@@H](C)c1ncc(N2CCN(CC(F)F)CC2)cc1-c1c2c3cc(cc4c3n1CCC4)-c1csc(n1)C[C@H](NC(=O)[C@H]1[C@H](C)[C@@H]1C)C(=O)N1CCC[C@H](N1)C(=O)OCC(C)(C)C2 (atropisomer, axis not shown) [Example 109, (1r,2R,3S)-N-[(7S,13S)-20-[5-[4-(2,2-difluoroethyl)piperazin-1-yl]-2-[(1S)-1-methoxyethyl]-3-pyridyl]-17,17-dimethyl-8,14-dioxo-15-oxa-4-thia-9,21,30,31-tetrazahexacyclo[23.3.1.1^2,5.1^9,13.0^19,27.0^21,26]hentriaconta-1 (28),2,5 (31), 19,25 (29),26-hexaen-7-yl]-2,3-dimethyl-cyclopropanecarboxamide] | 0.9 | 0.3 | 4.1 | 6 | 5.1 | 0.6 | 2.8 |
| CO[C@@H](C)c1ncc(N2CCOCC2)cc1-c1c2c3cc(cc4c3n1CCO4)-c1csc(n1)C[C@H](NC(=O)[C@H]1[C@H](C)[C@@H]1C)C(=O)N1CCC[C@H](N1)C(=O)OCC(C)(C)C2 (atropisomer, axis not shown; (M)) [Example 68, (1r,2R,3S)-N-[(7S,13S)-(20M)-20-[2-[(1S)-1-methoxyethyl]-5-morpholino-3-pyridyl]-17,17-dimethyl-8,14-dioxo-15,24-dioxa-4-thia-9,21,30,31-tetrazahexacyclo[23.3.1.1^2,5.1^9,13.0^19,27.0^21,26]hentriaconta-1 (29),2,5 (31),19,25,27-hexaen-7-yl]-2,3-dimethyl-cyclopropanecarboxamide] | 0.2 | 0.3 | 3.9 | 16.8 | 7.8 | 0.5 | 3.2 |
| CO[C@@H](C)c1ncc(N2CCN(C)CC2)cc1-c1c2c3cc(cc4c3n1CCC4)-c1csc(n1)C[C@H](NC(=O)[C@H]1[C@@H]3COC[C@@H]31)C(=O)N1CCC[C@H](N1)C(=O)OCC(C)(C)C2 (atropisomer, axis not shown; (M)) [Example 15, (1S,5R,6r)-N-[(7S,13S)-(20M)-20-[2-[(1S)-1-methoxyethyl]-5-(4-methylpiperazin-1-yl)-3-pyridyl]-17,17-dimethyl-8,14-dioxo-15-oxa-4-thia-9,21,30,31-tetrazahexacyclo[23.3.1.1^2,5.1^9,13.0^19,27.0^21,26]hentriaconta-1 (28),2,5 (31), 19,25 (29),26-hexaen-7-yl]-3-oxabicyclo[3.1.0]hexane-6-carboxamide] | 0.7 | 0.8 | 5.2 | 11.9 | 15.9 | 1.2 | 6.6 |
| CO[C@@H](C)c1ncc(N2CCN(C)CC2)cc1-c1c2c3cc(cc4c3n1CCO4)-c1csc(n1)C[C@H](NC(=O)[C@@H]1C[C@H]1C1CC1)C(=O)N1CCC[C@H](N1)C(=O)OCC(C)(C)C2 (atropisomer, axis not shown; (M)) [Example 64, (1R,2S)-2-cyclopropyl-N-[(7S,13S)-(20M)-20-[2-[(1S)-1-methoxyethyl]-5-(4-methylpiperazin-1-yl)-3-pyridyl]-17,17-dimethyl-8,14-dioxo-15,24-dioxa-4-thia-9,21,30,31-tetrazahexacyclo[23.3.1.1^2,5.1^9,13.0^19,27.0^21,26]hentriaconta-1 (29),2,5 (31), 19,25,27-hexaen-7-yl]cyclopropanecarboxamide] | 1.2 | 0.6 | 3.7 | 17.2 | 21.9 | 1.3 | 8 |
| CO[C@@H](C)c1ncc(N2CCOCC2)cc1-c1c2c3cc(cc4c3n1CCO4)-c1csc(n1)C[C@H](NC(=O)[C@H]1C[C@@H]1C)C(=O)N1CCC[C@H](N1)C(=O)OCC(C)(C)C2 (atropisomer, axis not shown; (M)) [Example 8, (1S,2S)-N-[(7S,13S)-(20M)-20-[2-[(1S)-1-methoxyethyl]-5-morpholino-3-pyridyl]-17,17-dimethyl-8,14-dioxo-15,24-dioxa-4-thia-9,21,30,31-tetrazahexacyclo[23.3.1.1^2,5.1^9,13.0^19,27.0^21,26]hentriaconta-1 (28),2,5 (31), 19,25 (29),26-hexaen-7-yl]-2-methyl-cyclopropanecarboxamide] | 2.6 | 1.2 | 7.1 | 23.7 | 18.7 | 1.1 | 5.9 |
| CO[C@@H](C)c1ncc(N2CCN3CCCC[C@@H]3C2)cc1-c1c2c3cc(cc4c3n1CCC4)-c1csc(n1)C[C@H](NC(=O)[C@H]1C[C@@H]1C)C(=O)N1CCC[C@H](N1)C(=O)OCC(C)(C)C2 (atropisomer, axis not shown; (M)) [Example 49, (1S,2S)-N-[(7S,13S)-(20M)-20-[5-[(9αR)-1,3,4,6,7,8,9,9a-octahydropyrido[1,2-a]pyrazin-2-yl]-2-[(1S)-1-methoxyethyl]-3-pyridyl]-17,17-dimethyl-8,14-dioxo-15-oxa-4-thia-9,21,30,31-tetrazahexacyclo[23.3.1.1^2,5.1^9,13.0^19,27.0^21,26]hentriaconta-1 (28),2,5 (31), 19,25 (29),26-hexaen-7-yl]-2-methyl-cyclopropanecarboxamide] | 2.4 | 1.3 | 13.7 | 17.5 | 29.1 | 1.7 | 9.7 |
| CO[C@@H](C)c1ncc(N2CCN(C)CC2)cc1-c1c2c3cc(cc4c3n1CCC4)-c1csc(n1)C[C@H](NC(=O)[C@@H]1C[C@H]1c1cncc(C)c1)C(=O)N1CCC[C@H](N1)C(=O)OCC(C)(C)C2 (atropisomer, axis not shown; (M)) [Example 120, (1R,2R)-N-[(7S,13S)-(20M)-20-[2-[(1S)-1-methoxyethyl]-5-(4-methylpiperazin-1-yl)-3-pyridyl]-17,17-dimethyl-8,14-dioxo-15-oxa-4-thia-9,21,30,31-tetrazahexacyclo[23.3.1.1^2,5.1^9,13.0^19,27.0^21,26]hentriaconta-1 (28),2,5 (31), 19,25 (29),26-hexaen-7-yl]-2-(5-methyl-3-pyridyl)cyclopropanecarboxamide] | 1.1 | 0.9 | 2.9 | 20.4 | 2.2 | 0.4 | 1.4 |
| CO[C@@H](C)c1ncc(N2CCN(C3COC3)CC2)cc1-c1c2c3cc(cc4c3n1CCC4)-c1csc(n1)C[C@H](NC(=O)[C@H]1[C@H](C)[C@@H]1C)C(=O)N1CCC[C@H](N1)C(=O)OCC(C)(C)C2 (atropisomer, axis not shown; (M)) [Example 118, (1r,2R,3S)-N-[(7S,13S)-(20M)-20-[2-[(1S)-1-methoxyethyl]-5-[4-(oxetan-3-yl)piperazin-1-yl]-3-pyridyl]-17,17-dimethyl-8,14-dioxo-15-oxa-4-thia-9,21,30,31-tetrazahexacyclo[23.3.1.1^2,5.1^9,13.0^19,27.0^21,26]hentriaconta-1 (28),2,5 (31), 19,25 (29),26-hexaen-7-yl]-2,3-dimethyl-cyclopropanecarboxamide] | 0.7 | 0.3 | 3.5 | 13.5 | 1.3 | 0.2 | 1.1 |
